From article PMC6437697 (Journal of Medicinal Chemistry, 2019)

Experiments:
Experiment in all cases: KINOMEscan
Format in all cases: binding
Details in all cases: read-out: % control activity remaining
[1] = biological target: T1, DMPK (Homo sapiens, UniProt Q09013)
T1 construct: purchased Eurofins DiscoverX KINOMEscan
T1 sequence (Q09013 1-629): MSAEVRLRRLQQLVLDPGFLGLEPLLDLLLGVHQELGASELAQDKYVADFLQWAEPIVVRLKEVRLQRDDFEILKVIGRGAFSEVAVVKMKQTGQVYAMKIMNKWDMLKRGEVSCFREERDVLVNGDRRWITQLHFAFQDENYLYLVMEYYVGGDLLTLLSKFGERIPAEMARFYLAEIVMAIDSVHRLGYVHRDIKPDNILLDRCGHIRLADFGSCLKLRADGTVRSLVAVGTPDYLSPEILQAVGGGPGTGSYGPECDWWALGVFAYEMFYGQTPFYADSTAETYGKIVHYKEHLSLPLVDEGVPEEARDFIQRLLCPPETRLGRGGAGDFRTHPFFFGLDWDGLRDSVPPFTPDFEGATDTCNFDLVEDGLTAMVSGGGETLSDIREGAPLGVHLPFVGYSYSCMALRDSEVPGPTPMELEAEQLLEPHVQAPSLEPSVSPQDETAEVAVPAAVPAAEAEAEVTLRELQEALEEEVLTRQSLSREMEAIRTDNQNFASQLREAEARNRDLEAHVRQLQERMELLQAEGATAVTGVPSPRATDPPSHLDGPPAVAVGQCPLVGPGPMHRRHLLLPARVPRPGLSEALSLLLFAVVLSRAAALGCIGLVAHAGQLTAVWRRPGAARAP

[2] = biological target: T2, CIT (Homo sapiens, UniProt O14578)
T2 construct: purchased Eurofins DiscoverX KINOMEscan
T2 sequence (O14578 whole entry): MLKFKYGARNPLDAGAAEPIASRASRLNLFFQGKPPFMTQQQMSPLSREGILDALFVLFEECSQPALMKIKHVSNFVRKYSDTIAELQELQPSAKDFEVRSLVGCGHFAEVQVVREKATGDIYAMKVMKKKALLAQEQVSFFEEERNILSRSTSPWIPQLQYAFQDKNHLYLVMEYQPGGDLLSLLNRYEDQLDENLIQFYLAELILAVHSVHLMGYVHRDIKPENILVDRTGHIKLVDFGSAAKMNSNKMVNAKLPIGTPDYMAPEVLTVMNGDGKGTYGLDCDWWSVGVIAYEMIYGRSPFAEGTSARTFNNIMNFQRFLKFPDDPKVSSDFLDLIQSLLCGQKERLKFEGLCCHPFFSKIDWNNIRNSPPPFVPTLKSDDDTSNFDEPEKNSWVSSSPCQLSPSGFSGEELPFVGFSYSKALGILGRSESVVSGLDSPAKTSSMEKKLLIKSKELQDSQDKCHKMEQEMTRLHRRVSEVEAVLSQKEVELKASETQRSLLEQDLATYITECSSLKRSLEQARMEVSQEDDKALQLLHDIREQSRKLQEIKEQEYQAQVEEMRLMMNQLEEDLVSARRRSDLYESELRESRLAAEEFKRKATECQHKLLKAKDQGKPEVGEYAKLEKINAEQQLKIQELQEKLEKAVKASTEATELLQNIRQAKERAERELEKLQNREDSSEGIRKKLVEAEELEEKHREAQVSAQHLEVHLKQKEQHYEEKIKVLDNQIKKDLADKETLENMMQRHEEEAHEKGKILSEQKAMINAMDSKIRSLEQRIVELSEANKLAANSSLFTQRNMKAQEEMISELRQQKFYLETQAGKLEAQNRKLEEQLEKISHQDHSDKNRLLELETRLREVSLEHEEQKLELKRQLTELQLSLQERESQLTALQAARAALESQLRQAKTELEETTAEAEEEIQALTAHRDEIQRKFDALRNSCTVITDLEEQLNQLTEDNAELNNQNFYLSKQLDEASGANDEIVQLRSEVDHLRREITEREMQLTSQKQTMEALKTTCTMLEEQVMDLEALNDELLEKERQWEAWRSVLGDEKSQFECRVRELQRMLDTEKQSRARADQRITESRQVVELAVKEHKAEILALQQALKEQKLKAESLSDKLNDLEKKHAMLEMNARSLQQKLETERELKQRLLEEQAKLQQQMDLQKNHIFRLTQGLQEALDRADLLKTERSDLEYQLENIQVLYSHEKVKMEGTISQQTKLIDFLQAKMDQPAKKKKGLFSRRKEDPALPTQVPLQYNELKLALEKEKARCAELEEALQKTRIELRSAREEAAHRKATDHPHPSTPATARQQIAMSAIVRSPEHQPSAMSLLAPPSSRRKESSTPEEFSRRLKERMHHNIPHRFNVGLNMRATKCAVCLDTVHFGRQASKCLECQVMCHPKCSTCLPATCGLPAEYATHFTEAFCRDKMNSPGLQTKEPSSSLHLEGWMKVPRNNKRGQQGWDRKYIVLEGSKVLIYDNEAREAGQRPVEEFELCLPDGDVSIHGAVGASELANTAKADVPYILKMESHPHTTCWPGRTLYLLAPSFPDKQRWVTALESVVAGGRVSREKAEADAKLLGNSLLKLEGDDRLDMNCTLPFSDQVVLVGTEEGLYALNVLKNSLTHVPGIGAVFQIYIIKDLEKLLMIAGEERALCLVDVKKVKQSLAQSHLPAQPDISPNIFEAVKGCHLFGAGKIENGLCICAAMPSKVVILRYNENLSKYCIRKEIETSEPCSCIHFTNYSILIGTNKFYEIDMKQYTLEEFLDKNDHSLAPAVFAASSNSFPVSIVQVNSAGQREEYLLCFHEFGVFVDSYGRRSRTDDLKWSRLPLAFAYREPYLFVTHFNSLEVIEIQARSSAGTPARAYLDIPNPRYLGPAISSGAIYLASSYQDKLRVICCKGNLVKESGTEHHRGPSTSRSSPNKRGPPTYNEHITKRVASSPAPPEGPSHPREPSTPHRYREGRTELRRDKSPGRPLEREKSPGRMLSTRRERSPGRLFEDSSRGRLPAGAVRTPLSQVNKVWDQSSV

[3] = biological target: T3, PRKCE (Homo sapiens, UniProt Q02156)
T3 construct: purchased Eurofins DiscoverX KINOMEscan
T3 sequence (Q02156 1-737): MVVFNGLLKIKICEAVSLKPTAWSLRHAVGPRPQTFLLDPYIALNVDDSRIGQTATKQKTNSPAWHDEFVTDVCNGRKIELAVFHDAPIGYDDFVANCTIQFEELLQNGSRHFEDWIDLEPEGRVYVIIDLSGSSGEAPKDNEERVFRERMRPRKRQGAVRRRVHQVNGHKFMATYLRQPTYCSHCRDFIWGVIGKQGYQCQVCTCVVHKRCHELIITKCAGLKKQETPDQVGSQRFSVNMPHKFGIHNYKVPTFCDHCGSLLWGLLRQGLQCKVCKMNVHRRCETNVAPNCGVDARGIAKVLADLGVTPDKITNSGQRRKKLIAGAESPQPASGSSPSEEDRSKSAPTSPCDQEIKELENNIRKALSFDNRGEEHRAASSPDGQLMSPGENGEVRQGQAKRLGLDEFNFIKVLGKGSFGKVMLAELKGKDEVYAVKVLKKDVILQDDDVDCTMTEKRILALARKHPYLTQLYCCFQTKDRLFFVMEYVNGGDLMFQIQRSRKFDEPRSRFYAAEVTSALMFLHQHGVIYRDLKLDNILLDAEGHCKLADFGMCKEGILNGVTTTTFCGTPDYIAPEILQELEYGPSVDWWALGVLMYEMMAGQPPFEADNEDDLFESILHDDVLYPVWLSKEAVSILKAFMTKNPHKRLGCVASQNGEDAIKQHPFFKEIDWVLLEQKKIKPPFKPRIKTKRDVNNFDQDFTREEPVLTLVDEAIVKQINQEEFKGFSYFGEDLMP

[4] = biological target: T4, ABL1(F317I)-phosphorylated (Homo sapiens, UniProt P00519, F317I)
T4 construct: purchased Eurofins DiscoverX KINOMEscan
T4 sequence (P00519 whole entry F317I): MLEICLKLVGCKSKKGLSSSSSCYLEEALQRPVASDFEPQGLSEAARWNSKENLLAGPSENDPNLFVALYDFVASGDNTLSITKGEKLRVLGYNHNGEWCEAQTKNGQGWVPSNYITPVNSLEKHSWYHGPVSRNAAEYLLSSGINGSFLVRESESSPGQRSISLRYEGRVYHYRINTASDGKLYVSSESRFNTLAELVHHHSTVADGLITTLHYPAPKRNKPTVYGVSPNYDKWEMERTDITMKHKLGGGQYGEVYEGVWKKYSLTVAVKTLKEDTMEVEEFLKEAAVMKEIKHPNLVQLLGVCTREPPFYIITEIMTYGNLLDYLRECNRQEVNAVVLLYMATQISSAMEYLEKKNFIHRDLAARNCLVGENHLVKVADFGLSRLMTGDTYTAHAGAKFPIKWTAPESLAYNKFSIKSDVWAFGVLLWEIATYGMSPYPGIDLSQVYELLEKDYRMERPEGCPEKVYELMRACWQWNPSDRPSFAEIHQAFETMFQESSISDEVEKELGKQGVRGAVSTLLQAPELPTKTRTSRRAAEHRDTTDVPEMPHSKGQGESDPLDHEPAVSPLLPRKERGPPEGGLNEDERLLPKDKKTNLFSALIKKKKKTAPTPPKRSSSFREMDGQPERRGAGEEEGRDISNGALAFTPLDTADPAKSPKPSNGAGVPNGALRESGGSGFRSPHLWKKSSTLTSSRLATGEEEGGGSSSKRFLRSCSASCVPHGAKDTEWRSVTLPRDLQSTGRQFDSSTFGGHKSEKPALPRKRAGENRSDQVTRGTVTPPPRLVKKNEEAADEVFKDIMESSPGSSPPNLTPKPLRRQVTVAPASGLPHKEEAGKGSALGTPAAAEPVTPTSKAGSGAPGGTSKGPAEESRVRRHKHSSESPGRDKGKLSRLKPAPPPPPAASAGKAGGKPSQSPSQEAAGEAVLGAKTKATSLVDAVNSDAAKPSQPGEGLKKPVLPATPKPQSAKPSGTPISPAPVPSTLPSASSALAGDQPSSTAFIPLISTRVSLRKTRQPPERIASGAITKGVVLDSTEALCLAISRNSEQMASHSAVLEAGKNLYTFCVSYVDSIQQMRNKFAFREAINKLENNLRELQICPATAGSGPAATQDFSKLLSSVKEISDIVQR

[5] = biological target: T5, CSNK1A1L (Homo sapiens, UniProt Q8N752)
T5 construct: purchased Eurofins DiscoverX KINOMEscan
T5 sequence (Q8N752 1-337): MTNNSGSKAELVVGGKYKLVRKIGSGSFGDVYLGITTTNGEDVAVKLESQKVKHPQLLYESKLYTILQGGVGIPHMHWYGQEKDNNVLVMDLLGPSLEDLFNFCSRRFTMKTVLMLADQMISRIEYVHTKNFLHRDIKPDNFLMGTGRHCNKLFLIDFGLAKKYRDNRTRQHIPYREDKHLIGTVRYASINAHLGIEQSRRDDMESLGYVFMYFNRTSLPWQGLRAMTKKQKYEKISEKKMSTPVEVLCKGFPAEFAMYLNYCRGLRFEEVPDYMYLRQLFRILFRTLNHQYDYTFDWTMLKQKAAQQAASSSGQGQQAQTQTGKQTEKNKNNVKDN

[6] = biological target: T6, TYK2(JH2domain-pseudokinase) (Homo sapiens, UniProt P29597)
T6 construct: TYK2(JH2domain-pseudokinase); purchased Eurofins DiscoverX KINOMEscan
T6 sequence (P29597 556-888 limits assumed): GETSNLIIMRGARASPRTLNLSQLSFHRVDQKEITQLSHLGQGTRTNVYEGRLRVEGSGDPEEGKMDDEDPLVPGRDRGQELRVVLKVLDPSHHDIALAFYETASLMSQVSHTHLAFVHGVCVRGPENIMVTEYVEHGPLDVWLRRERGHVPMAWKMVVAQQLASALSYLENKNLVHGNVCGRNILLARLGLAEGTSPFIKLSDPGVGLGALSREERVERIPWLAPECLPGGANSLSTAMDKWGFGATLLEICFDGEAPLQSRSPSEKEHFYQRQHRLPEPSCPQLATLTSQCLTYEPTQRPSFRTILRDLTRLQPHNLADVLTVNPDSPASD

[7] = biological target: T7, PLK4 (Homo sapiens, UniProt O00444)
T7 construct: purchased Eurofins DiscoverX KINOMEscan
T7 sequence (O00444 1-970): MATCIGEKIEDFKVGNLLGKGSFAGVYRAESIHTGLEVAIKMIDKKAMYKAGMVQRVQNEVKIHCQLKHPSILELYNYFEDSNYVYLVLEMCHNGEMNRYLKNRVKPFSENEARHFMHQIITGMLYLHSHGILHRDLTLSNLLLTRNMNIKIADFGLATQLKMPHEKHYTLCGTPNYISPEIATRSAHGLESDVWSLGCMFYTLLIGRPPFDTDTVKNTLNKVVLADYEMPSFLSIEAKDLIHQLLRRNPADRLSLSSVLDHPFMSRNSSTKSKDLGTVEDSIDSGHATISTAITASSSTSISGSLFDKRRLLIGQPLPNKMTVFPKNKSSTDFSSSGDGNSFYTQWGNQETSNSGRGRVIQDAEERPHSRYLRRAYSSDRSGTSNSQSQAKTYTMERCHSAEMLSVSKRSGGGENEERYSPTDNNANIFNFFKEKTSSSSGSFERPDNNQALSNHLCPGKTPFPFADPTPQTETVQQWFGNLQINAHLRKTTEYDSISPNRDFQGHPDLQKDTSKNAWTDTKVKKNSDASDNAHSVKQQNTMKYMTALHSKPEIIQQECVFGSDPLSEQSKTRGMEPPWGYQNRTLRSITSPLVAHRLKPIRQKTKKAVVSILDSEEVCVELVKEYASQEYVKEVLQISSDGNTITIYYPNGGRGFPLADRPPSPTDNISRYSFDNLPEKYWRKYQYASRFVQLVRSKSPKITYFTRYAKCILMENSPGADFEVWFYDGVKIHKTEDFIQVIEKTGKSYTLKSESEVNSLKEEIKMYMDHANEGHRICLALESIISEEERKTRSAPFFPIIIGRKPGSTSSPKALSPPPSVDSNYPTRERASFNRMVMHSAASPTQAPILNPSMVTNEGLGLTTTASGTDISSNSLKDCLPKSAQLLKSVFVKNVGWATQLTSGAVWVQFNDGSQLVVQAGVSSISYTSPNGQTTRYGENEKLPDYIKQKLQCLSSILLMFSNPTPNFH

Structure (SMILES) | remaining binding at 1 µM [1] [%] | remaining binding at 1 µM [2] [%] | remaining binding at 1 µM [3] [%] | remaining binding at 1 µM [4] [%] | remaining binding at 1 µM [5] [%] | remaining binding at 1 µM [6] [%] | remaining binding at 1 µM [7] [%]
Clc1cc(NCC2CC2)c2ncc(-c3ccc4[nH]ncc4c3)n2n1 [compound 2, 6-Chloro-N-(cyclopropylmethyl)-3-(1H-indazol-5-yl)imidazo[1,2-b]pyridazin-8-amine] | 84 | 73 | 100 | 93 | 100 | 91 | 87
O=C(CN1CCOCC1)N[C@H]1CC[C@H](Nc2cc(Cl)nn3c(-c4ccc5[nH]ncc5c4)cnc23)CC1 [compound 26] | 99 | 74 | 96 | 8.1 | 88 | 99 | 100
CN1CCC(CNc2cc(Cl)nn3c(-c4cc5nc(Nc6ccccc6)[nH]c5cc4F)cnc23)CC1 [compound 31, 6-Chloro-3-(6-fluoro-2-(phenylamino)-1H-benzo[d]imidazol-5-yl)-N-((1-methylpiperidin-4-yl)methyl)imidazo[1,2-b]pyridazin-8-amine] | 89 | 85 | 86 | 76 | 100 | 73 | 99
